Each structure is given as a SMILES string.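 Step 1: Grow cells in 96-well plates. Step 2: Expose to compound for 48 hours at 5 concentrations. Step 3: Interpolate endpoints linearly; if unreached, use highest concentration. TGI is the concentration that stops growth completely.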

Test systems include M14 melanoma; SF-268 CNS; OVCAR-4 ovarian; SF-295 CNS; ACHN renal; NCI-H23 lung; HT29 colon; SNB-19 CNS; NCI-H226 lung; OVCAR-3 ovarian; HCT-15 colon; SF-539 CNS; NCI/ADR-RES ovarian; MDA-MB-435; PC-3 prostate; MCF7 breast.
Common to all, as to test: NCI anticancer screen, dose series, 48 h

For `CSC(=Nc1ccc([N+](=O)[O-])cc1C#N)NC(=O)c1ccccc1`, the TGI in the assay on M14 melanoma, with SF-268 CNS, in the assay with OVCAR-4 ovarian, in the assay with SF-295 CNS, in the assay with ACHN renal and in the assay with NCI-H23 lung was > 100 µM in each case. Further, the TGI in the assay with HT29 colon, with SNB-19 CNS, in the assay on NCI-H226 lung, with OVCAR-3 ovarian, in the assay with HCT-15 colon and with SF-539 CNS was > 100 µM in each case.
Regarding `O=C1c2cccnc2S(=O)(=O)N1c1ccc(Br)cc1`, the TGI in the assay with M14 melanoma, in the assay on SF-268 CNS, in the assay with OVCAR-4 ovarian, with SF-295 CNS, with NCI-H23 lung and in the assay with HT29 colon was > 100 µM throughout. The TGI in the assay on SNB-19 CNS, in the assay on NCI/ADR-RES ovarian, in the assay with NCI-H226 lung, with MDA-MB-435, in the assay with OVCAR-3 ovarian and in the assay on PC-3 prostate was > 100 µM in each case. In addition, in the assay with HCT-15 colon, the TGI is > 100 µM.
Turning to `CCN(CC)c1c(-c2c(OC(C)C)c(=O)c2=O)c(=O)n2ccsc2c1OC(C)=O`, the TGI in the assay with M14 melanoma, in the assay with SF-268 CNS, in the assay with OVCAR-4 ovarian, in the assay on SF-295 CNS, with ACHN renal and in the assay on NCI-H23 lung was > 100 µM throughout. The TGI in the assay with HT29 colon, in the assay on SNB-19 CNS, with NCI/ADR-RES ovarian, in the assay with NCI-H226 lung, in the assay with MDA-MB-435 and in the assay with OVCAR-3 ovarian was > 100 µM throughout. Besides, the TGI in the assay on PC-3 prostate and in the assay with HCT-15 colon was > 100 µM throughout.
With `CCOc1cc2c(cc1OC)c[n+](C)c1c3cc(OC)c(OC)cc3ccc21`, the TGI in the assay on M14 melanoma, in the assay with SF-268 CNS, in the assay on OVCAR-4 ovarian, with SF-295 CNS, in the assay with ACHN renal and in the assay with NCI-H23 lung was > 100 µM in each case. Moreover, the TGI with HT29 colon was > 100 µM; with SNB-19 CNS, > 100 µM; in the assay with NCI-H226 lung, 99 µM; in the assay with OVCAR-3 ovarian, > 100 µM; in the assay on HCT-15 colon, > 100 µM; with SF-539 CNS, > 100 µM.
For the compound `CCOC(=O)c1ccc(-c2onc(C)c2Br)[nH]1`, the TGI in the assay with MCF7 breast, with M14 melanoma, in the assay on SF-268 CNS, in the assay on OVCAR-4 ovarian, with SF-295 CNS and in the assay on ACHN renal was > 100 µM throughout. Further, the TGI in the assay with NCI-H23 lung, in the assay with HT29 colon, in the assay on SNB-19 CNS, in the assay on NCI/ADR-RES ovarian, in the assay with MDA-MB-435 and with OVCAR-3 ovarian was > 100 µM in each case. Further, the TGI with PC-3 prostate and in the assay with HCT-15 colon was > 100 µM each time.
Consider `COc1ccc(/C=C2\C(=O)N(C(=O)c3ccc(NC(C)=O)cc3)N=C2C)cc1OC`, for which the TGI with M14 melanoma, in the assay with SF-268 CNS, in the assay on OVCAR-4 ovarian, in the assay with SF-295 CNS, in the assay with ACHN renal and in the assay on NCI-H23 lung was > 100 µM each time. Moreover, the TGI in the assay on HT29 colon, in the assay on SNB-19 CNS, in the assay on NCI-H226 lung, in the assay with OVCAR-3 ovarian, in the assay with HCT-15 colon and with SF-539 CNS was > 100 µM throughout.
Regarding `Cc1cnoc1/N=C1\C=C(Nc2oncc2C)C(=O)c2ccccc21`, the TGI with M14 melanoma, with SF-268 CNS, with OVCAR-4 ovarian, in the assay on SF-295 CNS, with ACHN renal and in the assay with NCI-H23 lung was > 100 µM in each case. For the same compound, the TGI in the assay on HT29 colon, with SNB-19 CNS, in the assay with NCI-H226 lung, in the assay with OVCAR-3 ovarian, in the assay with HCT-15 colon and in the assay on SF-539 CNS was > 100 µM each time.
For `O=NN(CC1(O)OCC(O)C(O)C1O)C(Cc1c[nH]c2ccccc12)C(=O)O` (stereo unspecified), the TGI in the assay on M14 melanoma, in the assay with ACHN renal, in the assay with NCI-H23 lung, in the assay with HT29 colon, in the assay with OVCAR-3 ovarian and with SF-539 CNS was > 100 µM throughout.
On to `COC(=O)C1=C(C(=O)OC)C23CC4CCC2(C(=O)C1O3)C4(C)C` (stereo unspecified), for which the TGI with M14 melanoma, in the assay with SF-268 CNS, with OVCAR-4 ovarian, in the assay with SF-295 CNS, in the assay with ACHN renal and with NCI-H23 lung was > 100 µM in each case. In addition, the TGI in the assay with HT29 colon, with SNB-19 CNS, in the assay with NCI-H226 lung, with OVCAR-3 ovarian, in the assay on HCT-15 colon and with SF-539 CNS was > 100 µM throughout.
Take `CN1CCN(c2n[nH]c(=O)c3c2nnn3Cc2ccccc2)CC1`: the TGI in the assay with MCF7 breast, in the assay on M14 melanoma, with SF-268 CNS, with OVCAR-4 ovarian, with SF-295 CNS and with ACHN renal was > 100 µM each time. Moreover, the TGI in the assay with NCI-H23 lung, in the assay on HT29 colon, with SNB-19 CNS, in the assay on NCI/ADR-RES ovarian, in the assay on MDA-MB-435 and in the assay on OVCAR-3 ovarian was > 100 µM in each case. For the same compound, the TGI was 37.1 µM in the assay on PC-3 prostate and > 100 µM in the assay with HCT-15 colon.
Take `CC(C)NC1CCCCC2c3ccccc3C12O` (stereo unspecified): the TGI in the assay with M14 melanoma, with SF-268 CNS, with OVCAR-4 ovarian, with SF-295 CNS, in the assay with ACHN renal and with NCI-H23 lung was > 100 µM throughout. Further, the TGI in the assay with HT29 colon, with SNB-19 CNS, with NCI-H226 lung and in the assay on HCT-15 colon was > 100 µM in each case.

Source of the values: PubChem BioAssay (NCI).
